Reference: patent US20250302974A1, “LECTIN-DRUG CONJUGATES” (UNICHEM LABORATORIES LIMITED, priority 2021, published 2025)
Read-outs that look alike come from different tables or passages of the source.

Columns and labels:
[1] = tested on: T24 human bladder carcinoma xenograft; assay: Effect on immune system (Th1 cytokines, IgM) in xenograft model; type: in vivo, mice
Protocol: (§9) Effect of compound of Formula 16 was evaluated using T24 human bladder carcinoma xenograft model.

[2] = tested on: T24 human bladder carcinoma xenograft; assay: In vivo anti-tumor potential, T24 human bladder carcinoma xenograft model in female nude mice; details: G2, 5 mg/kg, Weekly once
Protocol: (§1) In vivo anti-tumor potential of compound of Formula 16 was evaluated using T24 human bladder carcinoma xenograft model in mice by assessing biological endpoints such as tumor growth and tumor growth inhibition.
(§2) Thirty-five healthy female nude mice bearing T24 tumor with volume of ˜100 mm3 were selected, randomized and allocated into five groups (G1-G5, n=7 animals per group). Body weight of each mouse was recorded on the day of randomization and daily till the end of the study. The tumor size was measured weekly twice from the day of test item/reference drug/vehicle dosing till the end of the experiment. Tumor size was measured by digital caliper (MITUTOYO, Japan) by measuring length and width. Body weight and tumor volume data was statistically analysed using two-way ANOVA (Bonferroni Test). Statistical analysis was conducted using PRISM software, version 5.01.p values of <0.05 were considered as statistically significant. Percentage survival proportions were analyzed by “Kaplan Meier” method.

[3] = tested on: T24 human bladder carcinoma xenograft; assay: Histopathological investigation of tumour tissue; type: in vivo, mice; details: 5 mg/kg, weekly once
Protocol: as §9

[4] = tested on: T24 human bladder carcinoma xenograft; assay: In vivo anti-tumor potential, xenograft model (tumor volume, TGI, %T/C, body weight, survival); details: 5 mg/kg, weekly once
Protocol: as §1, §2

[5] = tested on: T24 human bladder carcinoma xenograft; assay: Histopathological investigation of tumour tissue, T24 xenograft model; type: in vivo, human T24 tumor in nude mice; details: G2, 5 mg/kg, Weekly once; 'Moderately Differentiated' wrapped over two lines
Protocol: as §9

Th1 cytokines; IgM = assay: Effect on immune system (Th1 cytokines, IgM), T24 xenograft model; type: in vivo, mice
Protocol: as §9

HT29 Colon = assay: Cytotoxic effect by MTT assay, 48 h; details: Homo sapiens, HT-29, 48 h
Protocol: (§3) Cells were treated with Test Items at various concentrations (0.0001 μM-10 μM) for 48 h. The cells corresponding to Positive Control group were treated with Doxorubicin at a concentration ranging from 0.1 μM-100 μM. The Untreated cells were used as Control. After 48 h of incubation, the effect of Test Items on cytotoxicity of cells was determined by MTT assay, the plates were taken out and 20 μl of 5 mg/m1 of MTT 3-(4,5-dimethythiazol-2-yl)-2,5-diphenyl tetrazolium bromide solution was added to all the wells. Cells were incubated for 3 h at 37° C. The supernatant was aspirated. 150 μl of DMSO was added to each well to dissolve formazan crystals. The absorbance of each well was then read at 540 nm using Synergy HT micro plate reader.
(§4) The % Cytotoxicity was calculated using the formula:
(§5) Where, X=Absorbance of cells treated with Test Item; R=Absorbance of Control cells (Untreated cells maintained in growth medium only).
(§6) Selectivity Index was calculated using the formula:
(§7) SI=IC50 in Normal cell/IC50 in cancer cell.
(§8) Activity scores of the Selective Index values were categorized as: • Not selective (SI value ≤1) • Moderately selective (1<SI value <5) • Selective (SI value ≥5)

T24 Bladder = assay: Cytotoxic effect by MTT assay, 48 h; details: Homo sapiens, 48 h
Protocol: as §3, §4, §5, §6, §7, §8

MG-63 Bone = assay: Cytotoxic effect by MTT assay, 48 h; details: Homo sapiens, MG-63, 48 h
Protocol: as §3, §4, §5, §6, §7, §8

[6] = Cytotoxic effect by MTT assay, 48 h; details: human
Protocol: as §3, §4, §5, §6, §7, §8

PA-1 Ovary = assay: Cytotoxic effect by MTT assay, 48 h; details: 48 h
Protocol: as §3, §4, §5, §6, §7, §8

U251 MG Brain = assay: Cytotoxic effect by MTT assay, 48 h; details: Homo sapiens, U-251, 48 h
Protocol: as §3, §4, §5, §6, §7, §8

KB Cervix = assay: Cytotoxic effect by MTT assay, 48 h; details: 48 h
Protocol: as §3, §4, §5, §6, §7, §8

MDA-MB-231 Breast = assay: Cytotoxic effect by MTT assay, 48 h; details: Homo sapiens, MDA-MB-231, 48 h
Protocol: as §3, §4, §5, §6, §7, §8

AGS Stomach = assay: Cytotoxic effect by MTT assay, 48 h; details: 48 h
Protocol: as §3, §4, §5, §6, §7, §8

PANC-1 Pancreatic = assay: Cytotoxic effect by MTT assay, 48 h; details: Homo sapiens, PANC-1, 48 h, read-out: IC50 Values
Protocol: as §3, §4, §5, §6, §7, §8

[7] = Cytotoxic effect by MTT assay, 48 h
Protocol: as §3, §4, §5

PBMC Normal = assay: Cytotoxic effect by MTT assay, 48 h; details: PBMC, 48 h, read-out: IC50 Values
Protocol: as §3, §4, §5

A549 Lungs = assay: Cytotoxic effect by MTT assay, 48 h; details: Homo sapiens, A549, 48 h, read-out: IC50 Values
Protocol: as §3, §4, §5, §6, §7, §8

[8] = Cytotoxic effect by MTT assay, 48 h; details: human; remark: listed apart in the source
Protocol: as §3, §4, §5, §6, §7, §8

[9] = read-out: Percent cytotoxicity wrt control

N.N.[Cl][Pt][Cl] [Cisplatin]
Immunoglobulins IgG ([1]; 5 mg/kg, i.p. (q7dX2)): 54 ng/mL
Immunoglobulins IgM ([1]; 5 mg/kg, i.p. (q7dX2)): 18 ng/mL
Th1 cytokines IFN gamma ([1]; 5 mg/kg, i.p. (q7dX2)): 80.8 pg/mL
Th1 cytokines IL-2 ([1]; 5 mg/kg, i.p. (q7dX2)): 259.3 pg/mL
Th2 cytokines IL-4 ([1]; 5 mg/kg, i.p. (q7dX2)): 60 pg/mL
Th2 cytokines IL-10 ([1]; 5 mg/kg, i.p. (q7dX2)): BLQ
IgM level ([1]; mouse, in vivo): reduction in IgM
Percent T/C Day 22 (Test/Control) [2]: 59.18%
Percent TGI Day 22 (Tumor Growth Inhibition) [2]: 40.82%
Apoptosis [3]: Mild
Grade [3]: 2 (Grade 2 (Moderately Differentiated) - <25-50% cells anaplastic)
Grade (differentiation in words) [3]: Moderately
Percent survival [4]: 100%
Tumor growth delay [4]: 10.5 days
Percent T/C Day 22 ([4]; Day 22): 59.18%
Percent TGI Day 22 ([4]; Day 22): 40.82%
Tumor volume Day 22 ([4]; Day 22): 622.6 cu · mm
Percent body weight change Day 22 ([4]; Day 22, nude mice bearing T24 tumor): 6.3%
Grade (differentiation) [5]: Moderately
IFN gamma (Th1 cytokine) (Th1 cytokines; IgM; G2, 5 mg/kg, i.p. (q7dX2)): 80.8 pg/mL
IL-2 (Th1 cytokine) (Th1 cytokines; IgM; G2, 5 mg/kg, i.p. (q7dX2)): 259.3 pg/mL
IL-4 (Th2 cytokine) (Th1 cytokines; IgM; G2, 5 mg/kg, i.p. (q7dX2)): 60 pg/mL
IL-10 (Th2 cytokine) (Th1 cytokines; IgM; G2, 5 mg/kg, i.p. (q7dX2)): BLQ
IgG (Th1 cytokines; IgM; G2, 5 mg/kg, i.p. (q7dX2)): 54 ng/mL
IgM (Th1 cytokines; IgM; G2, 5 mg/kg, i.p. (q7dX2)): 18 ng/mL
IgM (Th1 cytokines; IgM; T24 xenograft model): reduction in IgM

COc1cccc2c1C(=O)c1c(O)c3c(c(O)c1C2=O)C[C@@](O)(C(=O)CO)C[C@@H]3O[C@H]1C[C@H](N)[C@H](O)[C@H](C)O1 [Doxorubicin]
IC50 (HT29 Colon; read-out: IC50 Values): 35.3 µM
cytotoxicity at 0.1 µM (HT29 Colon; [9]): 3.2%
cytotoxicity at 1 µM (HT29 Colon; [9]): 1.7%
cytotoxicity at 10 µM (HT29 Colon; [9]): 32.7%
cytotoxicity at 50 µM (HT29 Colon; [9]): 61.9%
cytotoxicity at 100 µM (HT29 Colon; [9]): 59.8%
IC50 (T24 Bladder; read-out: IC50 Values): 5.5 µM
cytotoxicity at 0.1 µM (T24 Bladder; [9]): 21%
cytotoxicity at 1 µM (T24 Bladder; [9]): 34.8%
cytotoxicity at 10 µM (T24 Bladder; [9]): 72.8%
cytotoxicity at 50 µM (T24 Bladder; [9]): 66.6%
cytotoxicity at 100 µM (T24 Bladder; [9]): 52.7%
IC50 (MG-63 Bone; read-out: IC50 Values): 0.4 µM
cytotoxicity at 0.1 µM (MG-63 Bone; [9]): 35.3%
cytotoxicity at 1 µM (MG-63 Bone; [9]): 60.7%
cytotoxicity at 10 µM (MG-63 Bone; [9]): 82%
cytotoxicity at 50 µM (MG-63 Bone; [9]): 85.5%
cytotoxicity at 100 µM (MG-63 Bone; [9]): 75.5%
cytotoxicity at 48 h, 0.1 µM [6]: -3.4%
IC50 (PA-1 Ovary; read-out: IC50 Values): 1 µM
cytotoxicity at 0.1 µM (PA-1 Ovary; [9]): 19.6%
cytotoxicity at 1 µM (PA-1 Ovary; [9]): 62.6%
cytotoxicity at 10 µM (PA-1 Ovary; [9]): 73.2%
cytotoxicity at 50 µM (PA-1 Ovary; [9]): 79%
cytotoxicity at 100 µM (PA-1 Ovary; [9]): 71.5%
IC50 (U251 MG Brain; read-out: IC50 Values): 8.1 µM
cytotoxicity at 0.1 µM (U251 MG Brain; [9]): -13.5%
cytotoxicity at 1 µM (U251 MG Brain; [9]): 41.7%
cytotoxicity at 10 µM (U251 MG Brain; [9]): 57.9%
cytotoxicity at 50 µM (U251 MG Brain; [9]): 71%
cytotoxicity at 100 µM (U251 MG Brain; [9]): 65.6%
IC50 (KB Cervix; read-out: IC50 Values): 0.6 µM
cytotoxicity at 0.1 µM (KB Cervix; [9]): 28.7%
cytotoxicity at 1 µM (KB Cervix; [9]): 53.1%
cytotoxicity at 10 µM (KB Cervix; [9]): 95.7%
cytotoxicity at 50 µM (KB Cervix; [9]): 91.7%
cytotoxicity at 100 µM (KB Cervix; [9]): 84.2%
IC50 (MDA-MB-231 Breast; read-out: IC50 Values): 2.1 µM
cytotoxicity at 0.1 µM (MDA-MB-231 Breast; [9]): 3.4%
cytotoxicity at 1 µM (MDA-MB-231 Breast; [9]): 68%
cytotoxicity at 10 µM (MDA-MB-231 Breast; [9]): 74.3%
cytotoxicity at 50 µM (MDA-MB-231 Breast; [9]): 71.3%
cytotoxicity at 100 µM (MDA-MB-231 Breast; [9]): 58%
IC50 (AGS Stomach; read-out: IC50 Values): 4.3 µM
cytotoxicity at 0.1 µM (AGS Stomach; [9]): 15.6%
cytotoxicity at 1 µM (AGS Stomach; [9]): 72.4%
cytotoxicity at 10 µM (AGS Stomach; [9]): 74.5%
cytotoxicity at 50 µM (AGS Stomach; [9]): 74.8%
cytotoxicity at 100 µM (AGS Stomach; [9]): 79%
IC50 (PANC-1 Pancreatic): 8.2 µM
cytotoxicity at 48 h, 0.1 µM [7]: 5.3%
cytotoxicity at 48 h, 1 µM [7]: 29.3%
cytotoxicity at 48 h, 10 µM [7]: 37.4%
cytotoxicity at 48 h, 50 µM [7]: 40.5%
cytotoxicity at 48 h, 100 µM [7]: 37.1%
IC50 (PBMC Normal): > 100 µM
IC50 (A549 Lungs): 11 µM
cytotoxicity at 48 h, 0.1 µM [8]: 3.3%
